Read-outs that look alike come from different tables or passages of the source.
Columns and labels:
IRAK4 enzyme = IRAK4 enzyme (Homo sapiens (Human), UniProt Q9NWZ3); experiment: biochemical; type: biochemical; settings: IRAK4 enzyme, 500 μM ATP
TNFα = experiment: cells; type: cell-based, human; settings: Homo sapiens, Monocyte, LPS-stimulated human monocytes, read-out: EC50 TNF

Sequence of IRAK4 enzyme (Q9NWZ3 whole entry): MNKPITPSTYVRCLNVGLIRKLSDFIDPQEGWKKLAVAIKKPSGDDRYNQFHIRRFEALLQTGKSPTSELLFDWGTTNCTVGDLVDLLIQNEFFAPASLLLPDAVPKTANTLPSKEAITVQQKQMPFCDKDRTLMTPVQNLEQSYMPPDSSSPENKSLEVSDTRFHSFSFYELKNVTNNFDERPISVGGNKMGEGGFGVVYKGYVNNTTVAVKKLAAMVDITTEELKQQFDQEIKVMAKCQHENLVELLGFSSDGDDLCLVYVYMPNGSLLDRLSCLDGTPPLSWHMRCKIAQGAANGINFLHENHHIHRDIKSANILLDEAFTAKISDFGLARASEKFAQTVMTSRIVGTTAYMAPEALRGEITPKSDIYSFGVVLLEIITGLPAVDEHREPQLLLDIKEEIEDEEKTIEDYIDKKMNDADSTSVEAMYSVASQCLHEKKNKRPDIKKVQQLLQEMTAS

In the case of `Cn1cncc1-c1ccc(Nc2cc(-c3ccc4cc(C#N)cnn34)ncc2C(=O)NC[C@@H](F)C(C)(C)O)cc1` [Example 210, (R)-6-(3-cyanopyrrolo[1,2-b]pyridazin-7-yl)-N-(2-fluoro-3-hydroxy-3-methylbutyl)-4-((4-(1-methyl-1H-imidazol-5-yl)phenyl)amino) nicotinamide], the IC50 (IRAK4 enzyme; TR-FRET) is reported as under 1 nM and the EC50 (TNFα; TNFα content) is reported as 39 nM.
In the case of `CC(C)Nc1cc(-c2ccc3cc(C#N)cnn23)ncc1C(=O)NC1CCC(NC(=O)C2(C)COC2)CC1` (stereo not shown) [Example 134, 6-(3-cyanopyrrolo[1,2-b]pyridazin-7-yl)-4-(isopropylamino)-N-((1r,4r)-4-(3-methyloxetane-3-carboxamido)cyclohexyl)nicotinamide], the IC50 (IRAK4 enzyme; TR-FRET) is reported as 1 nM and the EC50 (TNFα; TNFα content) is reported as 101 nM.
`CCOc1cccc(Nc2cc(-c3ccc4cc(C#N)cnn34)ncc2C(=O)NC[C@@H](F)C(C)(C)O)c1` [Example 836, (R)-6-(3-cyanopyrrolo[1,2-b]pyridazin-7-yl)-4-((3-ethoxyphenyl)amino)-N-(2-fluoro-3-hydroxy-3-methylbutyl)nicotinamide] was tested, and the IC50 (IRAK4 enzyme; TR-FRET) was 2 nM and the EC50 (TNFα; TNFα by TR-FRET) was 43 nM.
For `CC(C)(O)[C@H](F)CNC(=O)c1cnc(-c2ccc3cc(C#N)cnn23)cc1N[C@H]1CC[C@H](NC(=O)C2CC2)CC1` [Example 297, 6-(3-cyanopyrrolo[1,2-b]pyridazin-7-yl)-4-(((1r,4R)-4-(cyclopropanecarbox-amido)cyclohexyl)amino)-N-((R)-2-fluoro-3-hydroxy-3-methylbutyl) nicotinamide], the IC50 (IRAK4 enzyme; TR-FRET) was 1 nM and the EC50 (TNFα; TNFα content) was 80 nM.
Molecule `COC(=O)NCCCC(C)(C)Nc1cc(-c2ccc3cc(C#N)cnn23)ncc1C(=O)NC[C@@H](F)C(C)(C)O` [Example 720, (R)-methyl (4-((2-(3-cyano-pyrrolo[1,2-b]pyridazin-7-yl)-5-((2-fluoro-3-hydroxy-3-methylbutyl)carbamoyl)pyridin-4-yl)amino)-4-methylpentyl)carbamate] has an IC50 (IRAK4 enzyme; TR-FRET (HTRF)) of 2 nM and an EC50 (TNFα; TNFα content) of 243 nM.
Work on `CC(=O)N[C@H]1CC[C@H](NC(=O)c2cnc(-c3ccc4cc(C#N)cnn34)cc2NC(C)C)CC1` [Example 13, N-((1r,4r)-4-acetamidocyclohexyl)-6-(3-cyanopyrrolo[1,2-b]pyridazin-7-yl)-4-(isopropylamino)nicotinamide] yielded an IC50 (IRAK4 enzyme; TR-FRET) of under 1 nM and an EC50 (TNFα; TNFα content) of 79 nM.
Molecule `CC(C)(O)[C@H](F)CNC(=O)c1cnc(-c2ccc3cc(C#N)cnn23)cc1Nc1cncc(C(N)=O)c1` [Example 592, (R)-4-((5-carbamoyl-pyridin-3-yl)amino)-6-(3-cyanopyrrolo[1,2-b]pyridazin-7-yl)-N-(2-fluoro-3-hydroxy-3-methylbutyl) nicotinamide] has an IC50 (IRAK4 enzyme; TR-FRET (HTRF)) of 1 nM and an EC50 (TNFα; TNFα content) of 222 nM.
`Cc1ncc(C2CCC(Nc3cc(-c4ccc5cc(C#N)cnn45)ncc3C(=O)NC[C@@H](F)C(C)(C)O)CC2)o1` (stereo partly drawn) [Example 644, (R)-6-(3-cyanopyrrolo[1,2-b]pyridazin-7-yl)-N-(2-fluoro-3-hydroxy-3-methylbutyl)-4-((4-(2-methyloxazol-5-yl)cyclo-hexyl)amino)nicotinamide] was tested, and the IC50 (IRAK4 enzyme; TR-FRET (HTRF)) was 1 nM and the EC50 (TNFα; TNFα content) was 36 nM.
`CC(C)(O)[C@H](F)CNC(=O)c1cnc(-c2ccc3cc(C#N)cnn23)cc1Nc1cnn([C@@H]2CCNC2)c1` [Example 208, 6-(3-cyanopyrrolo[1,2-b]pyridazin-7-yl)-N-((R)-2-fluoro-3-hydroxy-3-methylbutyl)-4-((1-((R)-pyrrolidin-3-yl)-1H-pyrazol-4-yl)amino) nicotinamide] was tested, and the IC50 (IRAK4 enzyme; TR-FRET) was under 1 nM and the EC50 (TNFα; TNFα content) was 92 nM.
With `CC(C)Nc1cc(-c2ccc3cc(C#N)cnn23)ncc1C(=O)NCC1(O)CCS(=O)(=O)C1` (stereo not shown) [Example 122, 6-(3-cyanopyrrolo[1,2-b]pyridazin-7-yl)-N-((3-hydroxy-1,1-dioxidotetrahydrothiophen-3-yl)methyl)-4-(isopropylamino)nicotinamide] the IC50 (IRAK4 enzyme; TR-FRET) was 17 nM and the EC50 (TNFα; TNFα content) was 867 nM.
Work on `CC(C)(O)[C@H](F)CNC(=O)c1cnc(-c2ccc3cc(C#N)cnn23)cc1Nc1ccc2c(c1)C1(CC1)C(=O)N2` [Example 665, (R)-6-(3-cyanopyrrolo[1,2-b]pyridazin-7-yl)-N-(2-fluoro-3-hydroxy-3-methylbutyl)-4-((2′-oxospiro[cyclopropane-1,3′-indolin]-5′-yl)amino)nicotinamide] yielded an IC50 (IRAK4 enzyme; TR-FRET (HTRF)) of 8 nM and an EC50 (TNFα; TNFα content) of 299 nM.
With `CNC(=O)OC12CCC(Nc3cc(-c4ccc5cc(C#N)cnn45)ncc3C(=O)NC[C@@H](F)C(C)(C)O)(CC1)CC2` [Example 412, (R)-4-((2-(3-cyanopyrrolo[1,2-b]pyridazin-7-yl)-5-((2-fluoro-3-hydroxy-3-methylbutyl)carbamoyl)pyridin-4-yl)amino)bicyclo[2.2.2]octan-1-yl methylcarbamate] the IC50 (IRAK4 enzyme; TR-FRET (HTRF)) was 1 nM and the EC50 (TNFα; TNFα content) was 44 nM.
For `CN(C)S(=O)(=O)N[C@H]1CC[C@H](Nc2cc(-c3ccc4cc(C#N)cnn34)ncc2C(=O)NC[C@@H](F)C(C)(C)O)CC1` [Example 285, 6-(3-cyanopyrrolo[1,2-b]pyridazin-7-yl)-4-(((1r,4R)-4-((N,N-dimethylsulfamoyl)amino)cyclohexyl)amino)-N-((R)-2-fluoro-3-hydroxy-3-methylbutyl)nicotinamide], the IC50 (IRAK4 enzyme; TR-FRET) was 2 nM and the EC50 (TNFα; TNFα content) was 167 nM.
Molecule `CC(=O)NC12CCC(Nc3cc(-c4ccc5cc(C#N)cnn45)ncc3C(=O)NCC#N)(CC1)CC2` [Example 476, 4-((4-acetamido-bicyclo[2.2.2]octan-1-yl)amino)-N-(cyano-methyl)-6-(3-cyano-pyrrolo[1,2-b]pyridazin-7-yl)nicotinamide] has an IC50 (IRAK4 enzyme; TR-FRET (HTRF)) of under 1 nM and an EC50 (TNFα; TNFα content) of 27 nM.
For `N#Cc1cnn2c(-c3cc(NC45CCC(O)(CC4)CC5)c(C(=O)NCC(=O)N4CCC5(COC5)C4)cn3)ccc2c1` [Example 799, 6-(3-cyanopyrrolo[1,2-b]pyridazin-7-yl)-4-((4-hydroxybicyclo[2.2.2]octan-1-yl)amino)-N-(2-oxo-2-(2-oxa-6-azaspiro[3.4]octan-6-yl)ethyl)nicotinamide], the IC50 (IRAK4 enzyme; TR-FRET) was under 1 nM and the EC50 (TNFα; TNFα by TR-FRET) was 62 nM.
`COC(=O)NC(C)(C)CCNC(=O)c1cnc(-c2ccc3cc(C#N)cnn23)cc1NC12CCC(O)(CC1)CC2` [Example 343, Methyl (4-(6-(3-cyanopyrrolo[1,2-b]pyridazin-7-yl)-4-((4-hydroxybicyclo[2.2.2]octan-1-yl)amino)nicotinamido)-2-methylbutan-2-yl)carbamate] showed an IC50 (IRAK4 enzyme; TR-FRET) of 1 nM and an EC50 (TNFα; TNFα content) of 38 nM.
In the case of `CC(C)(O)[C@H](F)CNC(=O)c1cnc(-c2ccc3cc(C#N)cnn23)cc1Nc1cnn2c1CCCC2` [Example 129, (R)-6-(3-cyanopyrrolo[1,2-b]pyridazin-7-yl)-N-(2-fluoro-3-hydroxy-3-methylbutyl)-4-((4,5,6,7-tetrahydropyrazolo[1,5-a]pyridin-3-yl)amino)nicotinamide], the IC50 (IRAK4 enzyme; TR-FRET) is reported as 6 nM and the EC50 (TNFα; TNFα content) is reported as 377 nM.
For `COC(=O)N1CC[C@H](CNc2cc(-c3ccc4cc(C#N)cnn34)ncc2C(=O)NC[C@@H](F)C(C)(C)O)C1` [Example 900, (R)-methyl 3-(((2-(3-cyanopyrrolo[1,2-b]pyridazin-7-yl)-5-(((R)-2-fluoro-3-hydroxy-3-methylbutyl)carbamoyl)pyridin-4-yl)amino)methyl) pyrrolidine-1-carboxylate], the IC50 (IRAK4 enzyme; TR-FRET) was 2 nM and the EC50 (TNFα; TNFα by TR-FRET) was 134 nM.
In the case of `CC(C)(O)[C@H](F)CNC(=O)c1cnc(-c2ccc3cc(C#N)cnn23)cc1Nc1cnn(C2CNC2)c1` [Example 232, (R)-4-((1-(azetidin-3-yl)-1H-pyrazol-4-yl)amino)-6-(3-cyanopyrrolo[1,2-b]pyridazin-7-yl)-N-(2-fluoro-3-hydroxy-3-methylbutyl)nicotinamide], the IC50 (IRAK4 enzyme; TR-FRET) is reported as 1 nM and the EC50 (TNFα; TNFα content) is reported as 425 nM.
`COC(=O)CNC(=O)c1cnc(-c2ccc3cc(C#N)cnn23)cc1NC12CCC(O)(CC1)CC2` [Example 341, methyl (6-(3-cyano-pyrrolo[1,2-b]pyridazin-7-yl)-4-((4-hydroxy-bicyclo[2.2.2]octan-1-yl)amino)nicotinoyl) glycinate] showed an IC50 (IRAK4 enzyme; TR-FRET) of under 1 nM and an EC50 (TNFα; TNFα content) of 16 nM.
In the case of `CC(C)Nc1cc(-c2ccc3cc(-c4nnn[nH]4)cnn23)ncc1C(=O)NC[C@@H](F)C(C)(C)O` [Example 17, (R)-6-(3-(1H-tetrazol-5-yl)pyrrolo[1,2-b]pyridazin-7-yl)-N-(2-fluoro-3-hydroxy-3-methylbutyl)-4-(isopropylamino)nicotinamide], the IC50 (IRAK4 enzyme; TR-FRET) is reported as 24 nM and the EC50 (TNFα; TNFα content) is reported as 5200 nM.
In the case of `CC(C)(O)[C@H](F)CNC(=O)c1cnc(-c2ccc3cc(C#N)cnn23)cc1NC1CC(F)(F)C1` [Example 40, (R)-6-(3-cyanopyrrolo[1,2-b]pyridazin-7-yl)-4-((3,3-difluorocyclobutyl)amino)-N-(2-fluoro-3-hydroxy-3-methylbutyl)nicotinamide], the IC50 (IRAK4 enzyme; TR-FRET) is reported as under 1 nM and the EC50 (TNFα; TNFα content) is reported as 73 nM.
`CC(C)(O)[C@H](F)CNC(=O)c1cnc(-c2ccc3cc(C#N)cnn23)cc1Nc1ccc2[nH]ccc2c1` [Example 576, (R)-4-((1H-indol-5-yl)amino)-6-(3-cyano-pyrrolo[1,2-b]pyridazin-7-yl)-N-(2-fluoro-3-hydroxy-3-methylbutyl) nicotinamide] was tested, and the IC50 (IRAK4 enzyme; TR-FRET (HTRF)) was under 1 nM and the EC50 (TNFα; TNFα content) was 21 nM.
`COc1cc(Nc2cc(-c3ccc4cc(C#N)cnn34)ncc2C(=O)NC[C@@H](F)C(C)(C)O)cnc1OC` [Example 853, (R)-6-(3-cyanopyrrolo[1,2-b]pyridazin-7-yl)-4-((5,6-dimethoxypyridin-3-yl)amino)-N-(2-fluoro-3-hydroxy-3-methylbutyl) nicotinamide] was tested, and the IC50 (IRAK4 enzyme; TR-FRET) was 14 nM and the EC50 (TNFα; TNFα by TR-FRET) was 127 nM.
Molecule `N#Cc1cnn2c(-c3cc(N[C@H]4CCC[C@@H](O)C4)c(C(=O)NCC4(C#N)CC4)cn3)ccc2c1` [Example 428, N-((1-cyanocyclopropyl)methyl)-6-(3-cyano-pyrrolo[1,2-b]pyridazin-7-yl)-4-(((1S,3R)-3-hydroxycyclohexyl)amino)nicotinamide] has an IC50 (IRAK4 enzyme; TR-FRET (HTRF)) of 63 nM and an EC50 (TNFα; TNFα content) of 4270 nM.
For `CC(C)Nc1cc(-c2ccc3cc(C#N)cnn23)ncc1C(=O)NC1CCC(NC(=O)C(C)(C)O)CC1` (stereo not shown) [Example 135, 6-(3-cyanopyrrolo[1,2-b]pyridazin-7-yl)-N-((1r,4r)-4-(2-hydroxy-2-methylpropanamido)cyclo-hexyl)-4-(isopropylamino) nicotinamide], the IC50 (IRAK4 enzyme; TR-FRET) was 2 nM and the EC50 (TNFα; TNFα content) was 130 nM.

— US10336762B2 (priority 2017, dated 2019)
